The text below walks through data of patent US8829007B2 (priority 2009, dated 2014).

For experiment [1], the system named is A/PR/8/34 influenza virus. The experiment in a line: microbe, parasite or virus in culture. It is filed as cell-based.
For experiment [2], the system named is influenza A virus (A/PR/8/34). The experiment in a line: microbe, parasite or virus in culture. Format: cell-based.
[3] abbreviates: Influenza A virus, PR/8, MDCK, mean all, A/PR/8/34 influenza virus in MDCK cells, bDNA assay, read-out: EC50.
Setting [4] is: Influenza A virus, PR/8, MDCK, mean all, A/PR/8/34 infected MDCK cells, CPE assay, read-out: IC50.
Where [5] appears, read: mean all, A/PR/8/34 influenza virus in MDCK cells, bDNA assay, read-out: EC50.
[6] abbreviates: Influenza A virus, PR/8, MDCK, MDCK cells infected with A/PR/8/34, bDNA viral RNA, read-out: EC50 (mean all).
[7] abbreviates: Influenza A virus, PR/8, MDCK, MDCK cells infected with A/PR/8/34, cell protection (CPE), read-out: IC50 (mean all).

Read-outs that look alike come from different tables or passages of the source. Where only a bound is given, the exact number is not on record here.

A word on the EC50: it is the midpoint of the concentration-response curve. A word on the IC50: it is the concentration at which inhibition is half-maximal. As to `COCCC(=O)N1CCC[C@@H](Nc2nc(-c3c[nH]c4ncc(Cl)cc34)ncc2F)C1` [Compound 320], in experiment [1] (setting [3]), the EC50 lay in the range of 5 to 10 µM. The IC50 in experiment [2] (setting [4]) fell in the range of 5 to 20 µM.
Take `O=C(O)C1CCC(Nc2nc(-c3c[nH]c4ncc(Cl)cc34)ncc2F)CC1` (stereo not shown) [Compound 731]: in experiment [1] (mean all, bDNA viral RNA in MDCK cells infected with A/PR/8/34, read-out: EC50), the EC50 was > 3.3 µM. The IC50 in experiment [2] (mean all, MDCK cells infected with A/PR/8/34, cell protection (CPE), read-out: IC50) was > 10 µM.
Take `CCCCS(=O)(=O)N1CCCC(Nc2ccnc(-c3c[nH]c4ncc(Cl)cc34)n2)C1` (stereo not shown) [Compound 419]: in experiment [1] (setting [5]), the EC50 was < 5 µM. The IC50 in experiment [2] (mean all, A/PR/8/34 infected MDCK cells, CPE assay, read-out: IC50) is < 5 µM.
For the compound `CC(C)(C)C(=O)N1CCOCC1CNc1nc(-c2c[nH]c3ncc(Cl)cc23)ncc1F` (stereo not shown) [Compound 530, 1-(3-((2-(5-chloro-1H-pyrrolo[2,3-b]pyridin-3-yl)-5-fluoropyrimidin-4-ylamino)methyl)morpholino)-2,2-dimethylpropan-1-one], the EC50 in experiment [1] (Influenza A virus, PR/8, MDCK, MDCK cells infected with A/PR/8/34, replication of influenza virus (viral RNA, bDNA), class symbols, read-out: EC50 (mean all)) is 5 to 10 µM. The IC50 in experiment [2] (Influenza A virus, PR/8, MDCK, MDCK cells infected with A/PR/8/34, survival of infected cells, class symbols, read-out: IC50 (mean all)) was > 20 µM.
As to `CC(=O)N1CCCC(CNc2ccnc(-c3c[nH]c4ncc(Cl)cc34)n2)C1` (stereo not shown) [Compound 490], the EC50 in experiment [1] (MDCK cells infected with A/PR/8/34, replication of influenza virus (viral RNA, bDNA), class symbols, read-out: EC50 (mean all)) was < 5 µM. Besides, the IC50 in experiment [2] (MDCK cells infected with A/PR/8/34, survival of infected cells, class symbols, read-out: IC50 (mean all)) was < 5 µM.
In the case of `O=C(Oc1ccccc1Cl)N1CCC[C@H](CNc2nc(-c3c[nH]c4ncc(Cl)cc34)ncc2F)C1` [Compound 70, (R)-2-chlorophenyl 3-((2-(5-chloro-1H-pyrrolo[2,3-b]pyridin-3-yl)-5-fluoropyrimidin-4-ylamino)methyl)piperidine-1-carboxylate], in experiment [1] (Influenza A virus, PR/8, MDCK, read-out: EC50 (mean all)), the EC50 is < 5 µM. For the same compound, the IC50 in experiment [2] (Influenza A virus, PR/8, MDCK, read-out: IC50 (mean all)) was < 5 µM.
Take `CCCC(=O)N1CCCC[C@@H]1CNc1nc(-c2c[nH]c3ncc(Cl)cc23)ncc1F` [Compound 295, (R)-1-(2-((2-(5-chloro-1H-pyrrolo[2,3-b]pyridin-3-yl)-5-fluoropyrimidin-4-ylamino)methyl)piperidin-1-yl)butan-1-one]: the EC50 in experiment [1] (setting [6]) is < 5 µM. In addition, the IC50 in experiment [2] (setting [7]) was < 5 µM.
In the case of “(R)—N-tert-butyl-3-((2-(5-chloro-1H-pyrrolo[2,3-b]pyridin-3-yl)-5-fluoropyrimidin-4-ylamino)methyl)piperidine-1-carboxamide [Compound 117]”, the EC50 in experiment [1] (read-out: EC50 (mean all)) was < 5 µM. Moreover, the IC50 in experiment [2] (read-out: IC50 (mean all)) is < 5 µM.
For the compound `CNC(=O)N[C@H]1CCC[C@H](Nc2nc(-c3c[nH]c4ncc(Cl)cc34)ncc2F)C1` (relative stereo) [Compound 458, 1-[trans-3-[[2-(5-chloro-1H-pyrrolo[2,3-b]pyridin-3-yl)-5-fluoro-pyrimidin-4-yl]amino]cyclohexyl]-3-methyl-urea], the EC50 in experiment [1] (setting [3]) is < 5 µM. Besides, the IC50 in experiment [2] (setting [4]) is < 5 µM.
On to `CCCNC(=O)N1CCCC[C@@H]1CNc1nc(-c2c[nH]c3ncccc23)ncc1F` [Compound 375, (R)-2-((5-fluoro-2-(1H-pyrrolo[2,3-b]pyridin-3-yl)pyrimidin-4-ylamino)methyl)-N-propylpiperidine-1-carboxamide], for which the EC50 in experiment [1] (setting [3]) is 5 to 10 µM. The IC50 in experiment [2] (setting [4]) lay within 5 to 20 µM.
As to `N#Cc1cnc2[nH]cc(-c3ncc(F)c(NC4CCCN(CC(N)=O)C4)n3)c2c1` (stereo not shown) [Compound 661], in experiment [1] (bDNA assay, A/PR/8/34 influenza virus replication in MDCK cells, class symbols, read-out: EC50 (mean all)), the EC50 was < 5 µM. In experiment [2] (CPE assay, A/PR/8/34 infected MDCK cells, class symbols, read-out: IC50 (mean all)), the IC50 was < 5 µM.
For `C#CCOC(=O)N1CCCC[C@H]1CNc1nc(-c2c[nH]c3ncc(Cl)cc23)ncc1F` [Compound 164, (S)-prop-2-ynyl 2-((2-(5-chloro-1H-pyrrolo[2,3-b]pyridin-3-yl)-5-fluoropyrimidin-4-ylamino)methyl)piperidine-1-carboxylate], the EC50 in experiment [1] (setting [6]) is < 5 µM. Moreover, the 50% inhibitory concentration (IC50) in experiment [2] (setting [7]) was > 20 µM.
For `O=C(c1ccc(F)cc1)N1CCCC[C@@H]1CNc1nc(-c2c[nH]c3ncc(Cl)cc23)ncc1F` [Compound 209, (R)-(2-((2-(5-chloro-1H-pyrrolo[2,3-b]pyridin-3-yl)-5-fluoropyrimidin-4-ylamino)methyl)piperidin-1-yl)(4-fluorophenyl)methanone], in that order: < 5 µM and < 5 µM.
With “1-[(1S,2S)-2-[[2-(5-chloro-1H-pyrrolo[2,3-b]pyridin-3-yl)-5-fluoro-pyrimidin-4-yl]amino]cyclohexyl]-3-methyl-urea [Compound 426]”, in experiment [1] (setting [5]), the EC50 was < 5 µM. Further, in experiment [2] (read-out: IC50), the IC50 was < 5 µM.
